Key:
[1] = Diet-induced obesity model, high-fat diet, 28 days; type: in vivo, C57BL/6J mice; details: 75 mg/kg/day oral gavage, vs high-fat vehicle, p<0.05, FIG. 6A
Experimental: The effect of the present compounds and methods on fat regulation, e.g., fat uptake and storage, etc., and on regulation of body weight was analyzed as follows. C57Bl/6J mice fed a high-fat diet develop severe obesity, hyperglycemia, and hyperinsulinemia, and are a model of diet-induced obesity, Type 2 diabetes, and impaired glucose tolerance. Forty male C57BL/6J mice obtained from The Jackson Laboratory (Bar Harbor Me.) were divided into the following experimental groups: Group 1: vehicle control animals fed standard mouse chow (n=10); Group 2: vehicle control animals fed high-fat mouse chow (45% fat from Research Diets) (n=10); Group 3: animals fed high-fat mouse chow and administered 75 mg/kg/day compound E by oral gavage (n=10); Group 4: animals fed high-fat mouse chow and administered 75 mg/kg/day compound A by oral gavage (n=10). The feeding regimen was continued for 28 days with weekly measurement of body weight. Animals were then sacrificed and their organs and fat pads were harvested and weighed.

GluT-1 [2] = experiment: GluT-1 protein levels in H9c2 cells, Western blot; type: cell-based, rat; details: H9c2 cells, 5, 10 and 20 μM, 16 hours; FIG. 9A
Experimental: (§1) As the compounds and methods of the invention regulate fat metabolism, which is tightly coordinated with glucose regulation, the effect of compounds and methods on glucose uptake and metabolism was analyzed. Human SSC-25 (squamous cell carcinoma) or rat H9c2 (ventricular cardiomyocyte) cells were grown to confluence in 100 mm culture dishes at 37° C., 10% CO2 in DMEM with 10% fetal calf serum. Cells were then washed twice with PBS and incubated with vehicle control, compound D (10 and 25 μM), or compound C (5, 10, and 20 μM) for 16 hours. Plates were placed on ice, culture supernatant was removed, and lysis buffer-1 (LB-1: 10 mM Tris pH 7.4, 1 mM EDTA, 150 mM sodium chloride, 0.5% IGEPAL) was added. Cells were harvested by scraping, incubated for 15 minutes on ice, and then centrifuged at 3,000×g for 5 minutes at 4° C. The supernatant, which represents the cytosolic fraction, was collected and cytosolic proteins were separated under reducing conditions using SDS-polyacrylamide gel electrophoresis (SDS-PAGE) with equal amounts of protein loaded per lane.
(§2) SDS-PAGE was conducted at 150 V for 2 hours, after which the proteins were transferred to a PVDF membrane at 400 mA for 1.5 hours at 4° C. […]

DEC1/Stra13 = DEC1/Stra13 expression in tissues after 4 days of oral dosing; type: in vivo, mouse; details: adipose, kidney, liver and muscle; oral gavage once per day for 4 days, 4 h after final dose; FIG. 3B
Experimental: (§3) To further investigate the effect of the methods and compounds of the present invention on expression of adipogenic factors, twelve Swiss Webster male mice (30-32 g) obtained from Simonsen, Inc. were treated by oral gavage once per day for 4 days with 4 ml/kg volume of either 0.5% CMC (0 mg/kg/day), 25 mg/ml compound D in 0.5% CMC (100 mg/kg/day), or 7.5 mg/ml and 25 mg/ml of compound B in 0.5% CMC (30 and 100 mg/kg/day, respectively). Four hours after the final dose, animals were anesthetized, sacrificed, and approximately 150 mg of adipose, heart, kidney, liver, lung, and muscle were isolated and stored in RNALATER solution (Ambion) at −20° C. RNA isolation and gene expression analysis was performed as described in Example 3 above.

GluT-1 [3] = experiment: GluT-1 protein levels in SCC-25 cells, Western blot; type: cell-based, human; details: 10 and 25 μM, 16 hours, FIG. 9A
Experimental: as §1, §2

HIF-1α [4] = experiment: HIFα stabilization in cells, nuclear fraction Western blot; type: cell-based, human; details: various cell types, overnight incubation; FIG. 8A
Source text: Compounds of the present invention for use in the present methods stabilize HIFα, inhibit HIF hydroxylase activity and/or HIFα hydroxylation, etc. Thus, compounds can be identified, e.g., by their ability to stabilize HIFα. Stabilization of HIFα using compounds and methods of the present invention was examined as follows. Human cells derived from adenovirus-transformed fetal kidney epithelium (293A), cervical epithelial adenocarcinoma (HeLa), hepatocellular carcinoma (Hep3B), squamous carcinoma (SSC-25), and lung fibroblast (HLF) tissues (see, e.g., American Type Culture Collection, Manassas Va.; and Qbiogene, Carlsbad Calif.) were separately seeded into 100 mm culture dishes and grown at 37° C., 20% O2, 5% CO2 in media as follows: HeLa cells in Dulbecco's Modification of Eagle's Medium (DMEM), 2% fetal bovine serum (FBS); HLF cells in DMEM, 10% FBS; 293A cells in DMEM, 5% FBS; and Hep3B cells in Minimal Essential Medium (MEM), Earle's BSS (Mediatech Inc., Herndon Va.), 2 mM L-glutamine, 0.1 mM non-essential amino acids, 1 mM sodium pyruvate, 10% FBS. When cell layers reached confluence, the media was replaced with OPTI-MEM media (Invitrogen Life Technologies, Carlsbad Calif.) and cell layers were incubated for approximately 24 hours in 20% O2, 5% CO2 at 37° C. […]

PPAR-γ = PPAR-γ expression in tissue after 4 days of oral dosing; type: in vivo, mouse; details: cardiac tissue; oral gavage once per day for 4 days; FIG. 3C
Experimental: as §3

HIF-1α [5] = experiment: HIF-1α in nuclear fractions, TRANSAM HIF-1 ELISA; type: cell-based, human; details: 293A and Hep3B cells, vs vehicle; FIG. 8B
Source text: Compounds of the present invention for use in the present methods stabilize HIFα, inhibit HIF hydroxylase activity and/or HIFα hydroxylation, etc. Thus, compounds can be identified, e.g., by their ability to stabilize HIFα. Stabilization of HIFα using compounds and methods of the present invention was examined as follows. Human cells derived from adenovirus-transformed fetal kidney epithelium (293A), cervical epithelial adenocarcinoma (HeLa), hepatocellular carcinoma (Hep3B), squamous carcinoma (SSC-25), and lung fibroblast (HLF) tissues (see, e.g., American Type Culture Collection, Manassas Va.; and Qbiogene, Carlsbad Calif.) were separately seeded into 100 mm culture dishes and grown at 37° C., 20% O2, 5% CO2 in media as follows: HeLa cells in Dulbecco's Modification of Eagle's Medium (DMEM), 2% fetal bovine serum (FBS); HLF cells in DMEM, 10% FBS; 293A cells in DMEM, 5% FBS; and Hep3B cells in Minimal Essential Medium (MEM), Earle's BSS (Mediatech Inc., Herndon Va.), 2 mM L-glutamine, 0.1 mM non-essential amino acids, 1 mM sodium pyruvate, 10% FBS. When cell layers reached confluence, the media was replaced with OPTI-MEM media (Invitrogen Life Technologies, Carlsbad Calif.) and cell layers were incubated for approximately 24 hours in 20% O2, 5% CO2 at 37° C. A compound of the invention (compound B, D, F, G, or H) or vehicle control (0.5 to 1% DMSO) was then added to existing medium, and incubation was continued overnight.
Alternatively, nuclear fractions were prepared using a nuclear extract kit (Active Motif, Carlsbad Calif.) and were analyzed for HIF-1α using a TRANSAM HIF-1 ELISA kit (Active Motif) according to the manufacturer's instructions.

O=C(O)CNC(=O)c1nc2cc(Cl)ccc2cc1O [compound A, [(7-Chloro-3-hydroxy-quinoline-2-carbonyl)-amino]-acetic acid]
weight gain [1]: significantly less weight gain

O=C(O)CNC(=O)c1ncc2cc(Oc3ccccc3)ccc2c1O [compound C, [(4-Hydroxy-7-phenoxy-isoquinoline-3-carbonyl)-amino]-acetic acid]
protein levels of GluT-1 (GluT-1 [2]): increased protein levels of GluT-1

O=C(O)c1c[nH]c2c(ccc3cccnc32)c1=O [compound D, 4-Oxo-1,4-dihydro-[1,10]phenanthroline-3-carboxylic acid]
DEC1/Stra13 expression (DEC1/Stra13): increased DEC1/Stra13 expression | protein levels of GluT-1 (GluT-1 [3]): increased protein levels of GluT-1 | HIFα stabilization (HIF-1α [4]): stabilized HIFα | PPAR-γ expression (PPAR-γ): decreased PPAR-γ expression

COc1ccc2c(O)c(C(=O)NCC(=O)O)nc(Cl)c2c1 [compound E, [(1-Chloro-4-hydroxy-7-methoxy-isoquinoline-3-carbonyl)-amino]-acetic acid]
weight gain [1]: significantly less weight gain

CC(C)Oc1ccc2nc(C(=O)NCC(=O)O)c(O)cc2c1 [compound F, [(3-Hydroxy-6-isopropoxy-quinoline-2-carbonyl)-amino]-acetic acid]
stabilization and accumulation of HIFα (HIF-1α [5]): stabilization and accumulation of HIFα

O=C(O)CNC(=O)c1ncccc1O [compound G, [(3-Hydroxy-pyridine-2-carbonyl)-amino]-acetic acid]
stabilization and accumulation of HIFα (HIF-1α [5]): stabilization and accumulation of HIFα

COC(=O)CNC(=O)c1nc(Cl)c2cc(OCc3ccccc3)ccc2c1O [compound H, [(7-Benzyloxy-1-chloro-4-hydroxy-isoquinoline-3-carbonyl)-amino]-acetic acid methyl ester]
stabilization and accumulation of HIFα (HIF-1α [5]): stabilization and accumulation of HIFα

— US8202834B2, “Fat regulation” (FibroGen, Inc., priority 2002, dated 2012)
